Data on nine compounds can be found in the Kinase Knowledgebase extract (Sharma et al. 2016).

What is called IC50 is the point on the concentration scale where inhibition reaches its midpoint.

The target of one assay is PIK3CA (human) (UniProt P42336). Put plainly: Inhibition of PIK3CA Kinase Activity.
For a further assay, the target named is PIK3CB (Human) (UniProt P42338). Put plainly: Inhibition of PIK3CB Kinase Activity.
Chain of PIK3CB (Human) (P42338 whole entry, looked up): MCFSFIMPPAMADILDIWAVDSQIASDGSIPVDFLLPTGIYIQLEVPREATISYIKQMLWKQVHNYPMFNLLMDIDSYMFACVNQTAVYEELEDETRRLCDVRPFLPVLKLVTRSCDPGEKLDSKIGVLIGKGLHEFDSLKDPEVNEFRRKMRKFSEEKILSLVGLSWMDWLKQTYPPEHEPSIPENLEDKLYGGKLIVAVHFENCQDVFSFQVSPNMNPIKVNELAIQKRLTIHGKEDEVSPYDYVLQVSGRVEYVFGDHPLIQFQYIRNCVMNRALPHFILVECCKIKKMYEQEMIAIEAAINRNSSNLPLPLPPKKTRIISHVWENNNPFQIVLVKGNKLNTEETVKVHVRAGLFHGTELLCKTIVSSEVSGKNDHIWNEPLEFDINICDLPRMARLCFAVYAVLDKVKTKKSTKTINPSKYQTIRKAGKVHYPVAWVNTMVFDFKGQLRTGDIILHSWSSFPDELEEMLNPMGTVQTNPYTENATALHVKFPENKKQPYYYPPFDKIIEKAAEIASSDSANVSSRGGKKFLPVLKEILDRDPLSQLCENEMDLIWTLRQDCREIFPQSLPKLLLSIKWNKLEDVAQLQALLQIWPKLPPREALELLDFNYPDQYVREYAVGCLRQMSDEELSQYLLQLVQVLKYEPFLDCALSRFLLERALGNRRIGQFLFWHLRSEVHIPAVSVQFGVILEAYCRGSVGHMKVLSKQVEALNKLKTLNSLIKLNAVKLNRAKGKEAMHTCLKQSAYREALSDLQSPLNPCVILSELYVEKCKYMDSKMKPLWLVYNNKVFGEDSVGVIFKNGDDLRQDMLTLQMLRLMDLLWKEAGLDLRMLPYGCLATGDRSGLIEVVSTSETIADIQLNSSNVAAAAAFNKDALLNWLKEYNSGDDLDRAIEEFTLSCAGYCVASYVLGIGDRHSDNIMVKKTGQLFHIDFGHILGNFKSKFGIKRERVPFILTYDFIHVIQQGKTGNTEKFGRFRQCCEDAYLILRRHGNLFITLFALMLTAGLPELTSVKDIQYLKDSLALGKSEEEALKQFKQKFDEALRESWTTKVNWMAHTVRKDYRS

Chain of PIK3CA (human) (P42336 whole entry, looked up): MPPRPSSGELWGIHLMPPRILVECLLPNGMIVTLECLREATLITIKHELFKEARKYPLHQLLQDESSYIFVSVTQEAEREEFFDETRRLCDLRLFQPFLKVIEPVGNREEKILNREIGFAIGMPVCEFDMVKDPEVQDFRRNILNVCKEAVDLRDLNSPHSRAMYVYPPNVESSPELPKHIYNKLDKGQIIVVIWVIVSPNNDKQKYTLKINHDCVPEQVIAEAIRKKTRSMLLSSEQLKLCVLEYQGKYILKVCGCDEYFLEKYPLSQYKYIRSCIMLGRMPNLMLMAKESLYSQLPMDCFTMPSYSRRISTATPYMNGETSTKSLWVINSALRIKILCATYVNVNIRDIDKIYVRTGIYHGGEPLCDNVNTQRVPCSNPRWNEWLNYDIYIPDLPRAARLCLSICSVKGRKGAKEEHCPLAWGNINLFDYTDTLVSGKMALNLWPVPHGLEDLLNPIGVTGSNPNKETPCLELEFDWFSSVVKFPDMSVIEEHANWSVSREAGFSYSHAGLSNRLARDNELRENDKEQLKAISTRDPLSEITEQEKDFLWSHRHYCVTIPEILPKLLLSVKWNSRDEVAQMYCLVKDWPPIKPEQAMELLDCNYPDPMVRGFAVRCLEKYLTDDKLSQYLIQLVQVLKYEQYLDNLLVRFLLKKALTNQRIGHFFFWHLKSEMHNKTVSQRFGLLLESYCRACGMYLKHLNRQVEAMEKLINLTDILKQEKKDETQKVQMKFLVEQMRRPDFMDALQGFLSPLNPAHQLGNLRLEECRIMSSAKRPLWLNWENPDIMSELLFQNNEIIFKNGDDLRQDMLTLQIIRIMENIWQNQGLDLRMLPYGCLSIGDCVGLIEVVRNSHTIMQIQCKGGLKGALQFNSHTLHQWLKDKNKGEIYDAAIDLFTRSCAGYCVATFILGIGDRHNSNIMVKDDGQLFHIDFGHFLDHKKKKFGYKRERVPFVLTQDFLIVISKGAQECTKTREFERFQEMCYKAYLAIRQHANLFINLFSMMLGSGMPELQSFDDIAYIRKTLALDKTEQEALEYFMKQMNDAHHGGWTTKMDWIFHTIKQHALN

As to `CC(=O)Nc1nc2ccc(-c3cnc(Cl)c(OC(C)C)c3)cc2s1`, the IC50 on PIK3CA (human) was found to be 44.1 nM; against PIK3CB (Human), 472 nM. On to `COc1cc(-c2ccc3nc(NC(C)=O)sc3c2)cnc1Br`, for which the IC50 on PIK3CB (Human) turned out to be 13300 nM. This lies in the double-digit micromolar range. `COc1ccc(COc2nccc(-c3ccc4nc(NC(C)=O)sc4c3)n2)cc1` yielded an IC50 on PIK3CB (Human) of 13300 nM. `CC(=O)Nc1nc2ccc(-c3ccnc(OCCCN4CCOCC4)n3)cc2s1` came in with an IC50 against PIK3CB (Human) of 11000 nM. Regarding `CC(=O)Nc1nc2ccc(-c3cnc(Cl)c(OC4CCOC4)c3)cc2s1` (stereo not drawn), the IC50 turned out to be 169 nM at PIK3CA (human) and 2870 nM at PIK3CB (Human). In the case of `CC(=O)Nc1nc2ccc(-c3cnc(Cl)c(F)c3)cc2s1`, at PIK3CB (Human), the IC50 was 13300 nM. In turn, `CC(=O)Nc1nc2ccc(-c3cccc(N)c3)nc2s1` had an IC50 against PIK3CB (Human) of 13300 nM. On to `CC(=O)Nc1nc2ccc(-c3ccnc(N4CCC[C@@H]4c4ccccc4)n3)cc2s1`, for which the IC50 turned out to be 2620 nM against PIK3CA (human) and 1610 nM against PIK3CB (Human). Taken in the same sequence, the figures for `CC(=O)Nc1nc2ccc(-c3ccnc(N4CCC[C@@H]4c4ccccc4C)n3)cc2s1` were 1560 nM and 778 nM.
